Source: patent US6358885B1, “Substituted phenylheterocyclic herbicides” (Mississippi State University, priority 1992, dated 2002)

Experiments:
Assay in all cases: Test B preemergence/postemergence greenhouse plant response rating 0 to 10
barley = type: in vivo, Hordeum vulgare; settings: for Plant response rating, Barley: 0 to 10 scale
Method in brief: (§1)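 Both application timings were run together: seeds got compound preemergence, and established seedlings (two to eighteen cm) got it postemergence. Non-phytotoxic solvent carried the chemical. Ratings are visual, versus controls, at twelve to sixteen days.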

bedstraw = type: in vivo, Galium aparine; settings: for Plant response rating, Bedstraw: 0 to 10 scale
Method in brief: as §1

blackgrass = type: in vivo, Alopecurus myosuroides; settings: for Plant response rating, Blackgrass: 0 to 10 scale
Method in brief: as §1

cocklebur = type: in vivo, Xanthium pensylvanicum; settings: for Plant response rating, Cocklebur: 0 to 10 scale
Method in brief: as §1

crabgrass = type: in vivo, Digitaria spp.; settings: for Plant response rating, Crabgrass: 0 to 10 scale
Method in brief: as §1

lambsquarters = type: in vivo, Chenopodium album; settings: for Plant response rating, Lambsquarter: 0 to 10 scale; for Plant response rating (0 to 10 scale), Lambsquarter: Rate 100 g/ha
Method in brief: as §1

rape = type: in vivo, Brassica napus; settings: for Plant response rating, Rape: 0 to 10 scale; for Plant response rating (0 to 10 scale), Rape: Rate 100 g/ha
Method in brief: as §1

rice = type: in vivo, Oryza sativa; settings: for Plant response rating, Rice: 0 to 10 scale; for Plant response rating (0 to 10 scale), Rice: Rate 100 g/ha
Method in brief: as §1

soybean = type: in vivo, Glycine max; settings: for Plant response rating, Soybean: 0 to 10 scale; for Plant response rating (0 to 10 scale), Soybean: Rate 100 g/ha
Method in brief: as §1

sugar beet = type: in vivo, Beta vulgaris; settings: for Plant response rating, Sugar beet: 0 to 10 scale; for Plant response rating (0 to 10 scale), Sugar beet: Rate 100 g/ha
Method in brief: as §1

purple nutsedge = type: in vivo, Cyperus rotundus; settings: for Plant response rating, Nutsedge: 0 to 10 scale; for Plant response rating (0 to 10 scale), Nutsedge: Rate 100 g/ha
Method in brief: as §1

Clc1ccc(-c2nc3n(c2Cl)CCC=C3)c(Cl)c1 [Compound 1]
4: Plant response rating (0 to 10 scale), Cocklebur (cocklebur; POSTEMERGENCE, Rate 50 g/ha) | Plant response rating, Cocklebur (cocklebur; POSTEMERGENCE, Rate 200 g/ha) | Plant response rating, Lambsquarter (lambsquarters; POSTEMERGENCE, Rate 50 g/ha) | Plant response rating, Rice (rice; POSTEMERGENCE, Rate 50 g/ha) | Plant response rating, Soybean (soybean; POSTEMERGENCE, Rate 50 g/ha) | Plant response rating, Soybean (soybean; POSTEMERGENCE, Rate 200 g/ha)
3: Plant response rating (0 to 10 scale), Barley (barley; POSTEMERGENCE, Rate 50 g/ha) | Plant response rating, Barley (barley; POSTEMERGENCE, Rate 200 g/ha) | Plant response rating (0 to 10 scale), Bedstraw (bedstraw; POSTEMERGENCE, Rate 50 g/ha) | Plant response rating, Bedstraw (bedstraw; POSTEMERGENCE, Rate 200 g/ha) | Plant response rating, Crabgrass (crabgrass; POSTEMERGENCE, Rate 200 g/ha) | Plant response rating, Rape (rape; POSTEMERGENCE, Rate 200 g/ha) | Plant response rating, Rice (rice; POSTEMERGENCE, Rate 200 g/ha)
8: Plant response rating, Sugar beet (sugar beet; POSTEMERGENCE, Rate 50 g/ha)
1: Plant response rating, Blackgrass (blackgrass; POSTEMERGENCE, Rate 200 g/ha) | Plant response rating, Rape (rape; POSTEMERGENCE, Rate 50 g/ha)
7: Plant response rating, Lambsquarter (lambsquarters; POSTEMERGENCE, Rate 200 g/ha)
10: Plant response rating, Sugar beet (sugar beet; POSTEMERGENCE, Rate 200 g/ha)
0: Plant response rating, Barley (barley; PREEMERGENCE, Rate 50 g/ha) | Plant response rating, Barley (barley; Rate 200 g/ha, PREEMERGENCE) | Plant response rating, Bedstraw (bedstraw; PREEMERGENCE, Rate 50 g/ha) | Plant response rating, Bedstraw (bedstraw; Rate 200 g/ha, PREEMERGENCE) | Plant response rating (0 to 10 scale), Blackgrass (blackgrass; POSTEMERGENCE, Rate 50 g/ha) | Plant response rating, Blackgrass (blackgrass; PREEMERGENCE, Rate 50 g/ha) | Plant response rating, Blackgrass (blackgrass; Rate 200 g/ha, PREEMERGENCE) | Plant response rating, Cocklebur (cocklebur; PREEMERGENCE, Rate 50 g/ha) | Plant response rating, Cocklebur (cocklebur; Rate 200 g/ha, PREEMERGENCE) | Plant response rating, Crabgrass (crabgrass; PREEMERGENCE, Rate 50 g/ha) | Plant response rating, Crabgrass (crabgrass; Rate 200 g/ha, PREEMERGENCE) | Plant response rating, Lambsquarter (lambsquarters; PREEMERGENCE, Rate 50 g/ha) | Plant response rating, Lambsquarter (lambsquarters; Rate 200 g/ha, PREEMERGENCE) | Plant response rating, Rape (rape; PREEMERGENCE, Rate 50 g/ha) | Plant response rating, Rape (rape; Rate 200 g/ha, PREEMERGENCE) | Plant response rating, Rice (rice; PREEMERGENCE, Rate 50 g/ha) | Plant response rating, Rice (rice; Rate 200 g/ha, PREEMERGENCE) | Plant response rating, Soybean (soybean; PREEMERGENCE, Rate 50 g/ha) | Plant response rating, Soybean (soybean; Rate 200 g/ha, PREEMERGENCE) | Plant response rating, Sugar beet (sugar beet; PREEMERGENCE, Rate 50 g/ha) | Plant response rating, Sugar beet (sugar beet; Rate 200 g/ha, PREEMERGENCE) | Plant response rating, Nutsedge (purple nutsedge; POSTEMERGENCE, Rate 50 g/ha) | Plant response rating, Nutsedge (purple nutsedge; POSTEMERGENCE, Rate 200 g/ha) | Plant response rating, Nutsedge (purple nutsedge; Rate 200 g/ha, PREEMERGENCE)
2: Plant response rating (0 to 10 scale), Crabgrass (crabgrass; POSTEMERGENCE, Rate 50 g/ha)

Clc1ccc(-c2nc3n(c2Br)CCCC3)c(Cl)c1 [Compound 2]
6: Plant response rating, Cocklebur (cocklebur; POSTEMERGENCE, Rate 200 g/ha) | Plant response rating, Lambsquarter (lambsquarters; Rate 200 g/ha, PREEMERGENCE) | Plant response rating, Soybean (soybean; POSTEMERGENCE, Rate 50 g/ha) | Plant response rating (0 to 10 scale), Soybean (soybean; POSTEMERGENCE) | Plant response rating, Soybean (soybean; POSTEMERGENCE, Rate 200 g/ha)
5: Plant response rating, Rape (rape; POSTEMERGENCE, Rate 50 g/ha)
9: Plant response rating, Lambsquarter (lambsquarters; POSTEMERGENCE, Rate 50 g/ha) | Plant response rating (0 to 10 scale), Lambsquarter (lambsquarters; POSTEMERGENCE) | Plant response rating, Lambsquarter (lambsquarters; POSTEMERGENCE, Rate 200 g/ha) | Plant response rating, Lambsquarter (lambsquarters; POSTEMERGENCE, Rate 400 g/ha) | Plant response rating, Rape (rape; POSTEMERGENCE, Rate 200 g/ha) | Plant response rating, Rape (rape; POSTEMERGENCE, Rate 400 g/ha) | Plant response rating, Sugar beet (sugar beet; POSTEMERGENCE, Rate 50 g/ha) | Plant response rating (0 to 10 scale), Sugar beet (sugar beet; POSTEMERGENCE)
7: Plant response rating (0 to 10 scale), Cocklebur (cocklebur; POSTEMERGENCE, Rate 50 g/ha) | Plant response rating (0 to 10 scale), Cocklebur (cocklebur; POSTEMERGENCE, Rate 100 g/ha) | Plant response rating, Crabgrass (crabgrass; POSTEMERGENCE, Rate 200 g/ha) | Plant response rating, Crabgrass (crabgrass; POSTEMERGENCE, Rate 400 g/ha) | Plant response rating, Soybean (soybean; POSTEMERGENCE, Rate 400 g/ha)
8: Plant response rating, Cocklebur (cocklebur; POSTEMERGENCE, Rate 400 g/ha)
1: Plant response rating (0 to 10 scale), Blackgrass (blackgrass; POSTEMERGENCE, Rate 50 g/ha) | Plant response rating (0 to 10 scale), Blackgrass (blackgrass; POSTEMERGENCE, Rate 100 g/ha) | Plant response rating, Blackgrass (blackgrass; POSTEMERGENCE, Rate 200 g/ha)
3: Plant response rating, Barley (barley; POSTEMERGENCE, Rate 200 g/ha) | Plant response rating (0 to 10 scale), Bedstraw (bedstraw; POSTEMERGENCE, Rate 50 g/ha) | Plant response rating (0 to 10 scale), Bedstraw (bedstraw; POSTEMERGENCE, Rate 100 g/ha) | Plant response rating, Bedstraw (bedstraw; POSTEMERGENCE, Rate 400 g/ha) | Plant response rating, Bedstraw (bedstraw; Rate 200 g/ha, PREEMERGENCE) | Plant response rating (0 to 10 scale), Crabgrass (crabgrass; POSTEMERGENCE, Rate 50 g/ha) | Plant response rating (0 to 10 scale), Crabgrass (crabgrass; POSTEMERGENCE, Rate 100 g/ha) | Plant response rating (0 to 10 scale), Rape (rape; POSTEMERGENCE) | Plant response rating, Rice (rice; POSTEMERGENCE, Rate 50 g/ha)
4: Plant response rating, Bedstraw (bedstraw; POSTEMERGENCE, Rate 200 g/ha) | Plant response rating (0 to 10 scale), Rice (rice; POSTEMERGENCE) | Plant response rating, Rice (rice; POSTEMERGENCE, Rate 200 g/ha) | Plant response rating, Rice (rice; POSTEMERGENCE, Rate 400 g/ha)
0: Plant response rating, Barley (barley; PREEMERGENCE, Rate 50 g/ha) | Plant response rating (0 to 10 scale), Barley (barley; PREEMERGENCE, Rate 100 g/ha) | Plant response rating, Barley (barley; PREEMERGENCE, Rate 400 g/ha) | Plant response rating, Barley (barley; Rate 200 g/ha, PREEMERGENCE) | Plant response rating, Bedstraw (bedstraw; PREEMERGENCE, Rate 50 g/ha) | Plant response rating (0 to 10 scale), Bedstraw (bedstraw; PREEMERGENCE, Rate 100 g/ha) | Plant response rating, Bedstraw (bedstraw; PREEMERGENCE, Rate 400 g/ha) | Plant response rating, Blackgrass (blackgrass; PREEMERGENCE, Rate 50 g/ha) | Plant response rating (0 to 10 scale), Blackgrass (blackgrass; PREEMERGENCE, Rate 100 g/ha) | Plant response rating, Blackgrass (blackgrass; PREEMERGENCE, Rate 400 g/ha) | Plant response rating, Blackgrass (blackgrass; Rate 200 g/ha, PREEMERGENCE) | Plant response rating, Cocklebur (cocklebur; PREEMERGENCE, Rate 50 g/ha) | Plant response rating (0 to 10 scale), Cocklebur (cocklebur; PREEMERGENCE, Rate 100 g/ha) | Plant response rating, Cocklebur (cocklebur; PREEMERGENCE, Rate 400 g/ha) | Plant response rating, Cocklebur (cocklebur; Rate 200 g/ha, PREEMERGENCE) | Plant response rating, Crabgrass (crabgrass; PREEMERGENCE, Rate 50 g/ha) | Plant response rating (0 to 10 scale), Crabgrass (crabgrass; PREEMERGENCE, Rate 100 g/ha) | Plant response rating, Crabgrass (crabgrass; Rate 200 g/ha, PREEMERGENCE) | Plant response rating, Lambsquarter (lambsquarters; PREEMERGENCE, Rate 50 g/ha) | Plant response rating (0 to 10 scale), Lambsquarter (lambsquarters; PREEMERGENCE) | Plant response rating, Rape (rape; PREEMERGENCE, Rate 50 g/ha) | Plant response rating (0 to 10 scale), Rape (rape; PREEMERGENCE) | Plant response rating, Rape (rape; PREEMERGENCE, Rate 400 g/ha) | Plant response rating, Rape (rape; Rate 200 g/ha, PREEMERGENCE) | Plant response rating, Rice (rice; PREEMERGENCE, Rate 50 g/ha) | Plant response rating (0 to 10 scale), Rice (rice; PREEMERGENCE) | Plant response rating, Rice (rice; PREEMERGENCE, Rate 400 g/ha) | Plant response rating, Rice (rice; Rate 200 g/ha, PREEMERGENCE) | Plant response rating, Soybean (soybean; PREEMERGENCE, Rate 50 g/ha) | Plant response rating (0 to 10 scale), Soybean (soybean; PREEMERGENCE) | Plant response rating, Soybean (soybean; PREEMERGENCE, Rate 400 g/ha) | Plant response rating, Soybean (soybean; Rate 200 g/ha, PREEMERGENCE) | Plant response rating, Sugar beet (sugar beet; PREEMERGENCE, Rate 50 g/ha) | Plant response rating (0 to 10 scale), Sugar beet (sugar beet; PREEMERGENCE) | Plant response rating, Sugar beet (sugar beet; Rate 200 g/ha, PREEMERGENCE) | Plant response rating, Nutsedge (purple nutsedge; POSTEMERGENCE, Rate 50 g/ha) | Plant response rating (0 to 10 scale), Nutsedge (purple nutsedge; POSTEMERGENCE) | Plant response rating, Nutsedge (purple nutsedge; POSTEMERGENCE, Rate 200 g/ha) | Plant response rating, Nutsedge (purple nutsedge; POSTEMERGENCE, Rate 400 g/ha) | Plant response rating, Nutsedge (purple nutsedge; PREEMERGENCE, Rate 50 g/ha) | Plant response rating (0 to 10 scale), Nutsedge (purple nutsedge; PREEMERGENCE) | Plant response rating, Nutsedge (purple nutsedge; PREEMERGENCE, Rate 400 g/ha) | Plant response rating, Nutsedge (purple nutsedge; Rate 200 g/ha, PREEMERGENCE)
10: Plant response rating, Sugar beet (sugar beet; POSTEMERGENCE, Rate 200 g/ha) | Plant response rating, Sugar beet (sugar beet; POSTEMERGENCE, Rate 400 g/ha)
2: Plant response rating (0 to 10 scale), Barley (barley; POSTEMERGENCE, Rate 50 g/ha) | Plant response rating (0 to 10 scale), Barley (barley; POSTEMERGENCE, Rate 100 g/ha) | Plant response rating, Barley (barley; POSTEMERGENCE, Rate 400 g/ha) | Plant response rating, Blackgrass (blackgrass; POSTEMERGENCE, Rate 400 g/ha)
